Measured values taken from patent US6979675B2, “Treatment of cancer with 2-deoxyglucose” (Threshold Pharmaceuticals, Inc., priority 2003, dated 2005).
Like-named read-outs stand apart in the source and are kept apart here. One block for each compound: values may come before it.

Legend:
HT-29 colon carcinoma = experiment: MTS growth inhibition assay, single agent studies; type: cell-based; conditions: Homo sapiens, HT-29, 72 h, 3 days in culture
Description: (§1) Human tumor cell lines MiaPaCa-2 pancreatic carcinoma (mutant ras, gemcitabine sensitive) and HT-29 colon carcinoma (polyposis type, mutant p53 and APC, chemosensitive) were purchased from the ATCC (Rockville, Md.). […] Cells grown to 70% confluency were trypsinized and resuspended into cell culture medium at a concentration of 10^5 cells/ml. On Day 0 of the experiment, a […] aliquot of tumor cells was plated into internal wells of a 96-well microtiter plate at an appropriate density (in the range of 2×10^3 to 10^4 cells/well). The cells were incubated for 24 hours to allow maximum adhesion prior to exposure with test agents. […] The starting concentration and the test range of 5-FU were determined empirically for each cell line. Treatment with 5-FU started on Day 1. There were 6 replicates for each dose determination. Both drugs were added once without the medium change. After 3 days in culture, the number of proliferating cells was measured by the MTS assay described below. The test was repeated twice to quantify growth inhibitory activity. […] IC50 values were generated from two separate experiments. […] The MTS reagent is a tetrazolium compound and an electron coupling reagent. The MTS tetrazolium compound is bioreduced by cells into a colored formazan product soluble in cell culture medium. The conversion is catalyzed by NADPH or NADH produced by dehydrogenase enzymes in metabolically active cells. The MTS assay is a colorimetic assay based upon the ability of viable cells to convert […] to formazan; the quantity of formazan product, as measured by the 490 nm absorbance, is directly proportional to the number of viable cells in culture. An automated procedure determines the IC50 value. Exponentially growing cells in […] of cell culture medium are plated on Day 0 in 96-well microtiter plates at a concentration of 10^4 cells/well. […] At the end of the designated time period, 100 microL of growth medium is removed. […] Absorbance is documented on a Dynex HD microplate reader at a wavelength of 490 nm. The data was calculated as percent growth inhibition, wherein 0% represents the mean value in wells to which only vehicle (cell culture medium) was added. The % Growth Inhibition was calculated as follows: % Growth Inhibition=(1−(ODtest/ODvehicle)×100, where ODtest is the optical density of the tested sample, and ODvehicle is the optical density of the vehicle in which each respective drug is dissolved. […] To determine the interaction, there must be a significant difference that exists between the combination absorbance values and both endpoint values. For example, if the values are statistically (p<0.05) above or below the absorbance values of either agent tested alone, then antagonism or synergy is described. […]

[1] = tested on: MiaPaCa-2 pancreatic carcinoma; experiment: MTS growth inhibition assay, single agent studies; type: cell-based; conditions: Homo sapiens, MIA PaCa-2, 72 h, 3 days in culture
Description: as §1

MV522 cells = experiment: Sulforhodamine B (SRB) growth inhibition assay; type: cell-based; conditions: Homo sapiens, 72 hours treatment
Description: (§2) The human lung tumor cell lines were MV522 and NCI-H23, both of which were derived from tumors displaying histopathology of adenocarcinoma, one of the at least three types of NSCLC. The NCI-H23 tumor cell line is available from the ATCC (Rockville, Md.), and the MV522 cell line was obtained by Dr. M. J. Kelner of the University of California. The cells were cultured in RPMI medium (Nova Tech, Grand Island, N.Y.) at 37° C. in a humidified atmosphere containing 5% CO2. For passaging, cells grown in 75 cm^2 flasks (60–70% confluency) were washed with PBS and dislodged from the flasks with trypsin (Gibco BRL) before being passaged. Cells used for the experiments described below were centrifuged and resuspended in cell culture medium at a concentration of 10^5 cells/mL. A 100 microliter aliquot (ten thousand cells) was plated into each well of a 96-well microtiter plate.
(§3) Docetaxel (Taxotere™, Aventis Pharmaceuticals, Inc.) solubilized in 100% DMSO and diluted 1000×to the desired concentration (0.1% DMSO final concentration), was used as a positive control. […] Exponentially growing cells in 100 microliters of cell culture medium were plated on Day 0 in 96-well microtiter plates at a concentration of 10^4 cells/well. On Day 1, drugs were added to each well of the microtiter plate with the designated concentration in 100 microliter aliquots of cell culture medium and incubated at 37° C. in a humidified incubator (5% CO2/95% HEPA filtered air). After three days of treatment, adherent cells were fixed by adding 50 microliters of cold 50% trichloracetic acid to each well and incubating for one hour at 4° C. The supernatant was discarded, and plates were washed twice with de-ionized water and air-dried. One hundred microliters of SRB solution were added to each well of the plate and incubated ten minutes at room temperature. Unbound SRB stain was removed by washing twice with 1% acetic acid. The bound SRB stain was solubilized with 10 mM Tris buffer, and the optical densities read at a single wavelength of 515 nm.
(§4) IC50 values (50% effective dose) were calculated from two different experiments, each of which involved 6 replicates for each dose tested. […]

NCI-H23 cells = experiment: Sulforhodamine B (SRB) growth inhibition assay; type: cell-based; conditions: Homo sapiens, 72 hours treatment
Description: as §2, §3, §4

[2] = tested on: MV522 human tumor carcinomas; experiment: Tumor growth delay study in mouse MV522 xenograft model (TH-PT-001)
Description: Female nude mice (nu/nu) between 5 and 6 weeks of age and weighing approximately 20 g were obtained from Harlan, Inc. (Madison, Wis.). Animals were implanted subcutaneously by trocar with fragments of Mv522 human tumor carcinomas harvested from subcutaneously growing tumors in nude mice hosts. When the tumors were approximately 71 mg in size (11 days following inoculation), the animals were pair-matched into treatment and control groups. Each group contained 10 tumored mice. Each mouse was ear-tagged and followed individually throughout the experiment. Initial doses were given on Day 1 following pair-matching. […] Sterile water was administered orally bid×5 to end to serve as the negative control. Mice were weighed twice weekly, and tumor measurements were obtained using calipers twice weekly, starting on Day 1. These tumor measurements were converted to mg tumor weight by the standard formula (W^2×L)/2. Each mouse was sacrificed when its tumor weight reached 1000 mg. In this test, the average day of sacrifice was determined for all groups and the tumor growth delay (TGD) for each treatment group, compared to the control group, was calculated.
All of these studies are outlined in the following table.

[3] = MTD study of combined 2-DG/cisplatin treatment versus cisplatin alone (TH-PT-002); conditions: cisplatin 2, 3, or 4 mg/kg/dose i.p. qd Days 6–10 with or without 2-DG 2000 mg/kg/dose oral qd days 1–10
Description: The maximum tolerated dose determination for this study was conducted using female nude mice (nu/nu) between 5 and 6 weeks of age weighing approximately 20 g (Harlan, Inc., Madison, Wis.). Dosing began on Day 1. […] […] Individual mouse weights in grams were recorded twice weekly throughout the study. The average weight per group was calculated, and weight gain or loss was determined by comparing the current Day's average to the Day 1 average for that same group. The study was terminated on Day 21.

[4] = tested on: MV522 non-small cell lung cancer (NSCLC) xenograft; experiment: Third efficacy study, paclitaxel alone or with oral 2-DG, tumor growth delay (TH-PT-003); type: in vivo, nude mice; conditions: paclitaxel alone 10 mg/kg/dose i.p. days 6–10
Description: An increase in efficacy was defined as a significant (P<0.05) increase in the time for the tumor to grow to 1000 mg (tumor growth delay—TGD) compared to vehicle alone or, for combination treatment groups, chemotherapy alone, as calculated using a two-tailed t-test. Female nude mice, ten per treatment arm, were implanted subcutaneously (s.c.) with trocar fragments of MV522 tumors harvested from s.c. tumors growing in nude mice hosts. Body weights and tumor measurements were taken biweekly. When tumors reached ˜70 mg, treatment was started. Mice were sacrificed when their individual tumor reached ˜1000 mg. All doses are reported as mg/kg/dose. […] The mice were then dosed i.p. with 10 mg/kg/dose paclitaxel once a day on days 6–10. […] Dosing with paclitaxel began when the tumors were approximately 200 mg.

[5] = tested on: H460, H23, H522 and H661 cells; experiment: Inhibition of proliferation of NSCLC tumor cell lines; type: cell-based; conditions: most human NSCLC tumor cell lines
H2347 cells = experiment: Inhibition of proliferation of Taxol-resistant cell line; type: cell-based; conditions: Homo sapiens, NCI-H2347
[6] = tested on: human non-small cell lung cancer (NSCLC) tumor cell lines; experiment: Proliferation with simultaneous 2-DG and Taxol treatment; type: cell-based
MV522 xenograft = experiment: 2-DG/Paclitaxel dosing study in mouse MV522 xenograft model; type: in vivo
Description: The mouse MV522 xenograft model substantially as described in Example 2 was used to compare the effects of dosing 2-DG orally (in water) either at a single dose of 4 g/kg or in multiple doses (twice a day at 2 g/kg) in various combinations with paclitaxel dosed i.p. as a single dose (30 mg/kg) or in multiple doses (once daily at 10 mg/kg).

[7] = for deaths: bid×5
Description: The maximum tolerated dose determination for this study was conducted using female nude mice (nu/nu) between 5 and 6 weeks of age weighing approximately 20 g (Harlan, Inc., Madison, Wis.). Dosing began on Day 1. […] A 20 mL/kg dose volume was used to achieve doses of 2000, 4000, 6000, 8000, and 9000 mg/kg/dose. Individual mouse weights in grams were recorded twice weekly throughout the study. The average weight per group was calculated, and weight gain or loss was determined by comparing the current Day's average to the Day 1 average for that same group. The study was terminated on Day 21.

[8] = rat, in vivo
[9] = dog, in vivo

IC50 (HT-29 colon carcinoma): 1.9 µg/mL
IC50 [1]: 2.58 µg/mL
Structure (SMILES): O=c1[nH]cc(F)c(=O)[nH]1 [5-FU, 5-fluoro-2,4(1H,3H)-pyrimidinedione, reference compound]

IC50 (NCI-H23 cells): 0.00164 ± 0.000211 µM
Structure (SMILES): CC(=O)O[C@@]12CO[C@@H]1C[C@H](O)[C@@]1(C)C(=O)[C@H](O)C3=C(C)[C@@H](OC(=O)[C@H](O)[C@@H](NC(=O)OC(C)(C)C)c4ccccc4)C[C@@](O)([C@@H](OC(=O)c4ccccc4)[C@H]21)C3(C)C [Docetaxel, reference compound]
IC50 (MV522 cells): 0.00211 ± 0.000601 µM

Structure (SMILES): N.N.[Cl][Pt][Cl] [cisplatin, cis-Diaminedichloroplatinum (II)]
TGD (tumor growth delay) ([2]; cisplatin 1 mg/kg i.p. Days 1–5): 15.8 days
TGD (tumor growth delay) ([2]; cisplatin 2 mg/kg i.p. Days 1–5): 32.6 days
mean day of sacrifice ([2]; cisplatin single agent 1 mg/kg i.p. Days 1–5): 42.3+/−0.9
mean day of sacrifice ([2]; cisplatin single agent 2 mg/kg i.p. Days 1–5): 59.1+/−5.7
complete regressions ([2]; high dose cisplatin group (2 mg/kg), 10 mice): Two mice
deaths during the 21 days of the study [3]: No mice died

Structure (SMILES): CC(=O)O[C@H]1C(=O)[C@@]2(C)[C@H]([C@H](OC(=O)c3ccccc3)[C@]3(O)C[C@H](OC(=O)[C@H](O)[C@@H](NC(=O)c4ccccc4)c4ccccc4)C(C)=C1C3(C)C)[C@]1(OC(C)=O)CO[C@@H]1C[C@@H]2O [paclitaxel]
toxic deaths ([2]; paclitaxel 16 mg/kg i.p. Days 1–5): no toxic deaths
complete regression ([2]; paclitaxel 16 mg/kg i.p. Days 1–5, 10 mice): one mouse experiencing a complete regression
mean day of sacrifice ([2]; paclitaxel 16 mg/kg i.p. Days 1–5, sacrifice at tumor weight 1000 mg): 56.8+/−4.3
TGD (tumor growth delay) ([2]; paclitaxel 16 mg/kg i.p. Days 1–5, vs negative control): 34.4 days
deaths [4]: One death per group
IC50 [5]: 0.05 to 0.2 µM
IC50 (H2347 cells): > 1 µM
inhibition of proliferation ([6]; 200 nM Taxol alone, one test): ~20%
efficacy of single dose 30 mg/kg versus 5 doses at 10 mg/kg (MV522 xenograft; paclitaxel i.p.): more effective

Structure (SMILES): O=CC[C@@H](O)[C@H](O)[C@H](O)CO [2-DG, 2-deoxy-D-glucose]
IC50 (MV522 cells): 3740 ± 740 µM
IC50 (NCI-H23 cells): 1860 ± 532 µM
tumor growth rate ([2]; 2-DG single agent 0–2000 mg/kg/dose, twice a day): did not slow the tumor growth rate
mean day of sacrifice ([2]; 2-DG single agent 750 mg/kg p.o. bid×5 to end): 28.9+/−3.7
mean day of sacrifice ([2]; 2-DG single agent 1000 mg/kg p.o. (Days 1–14 dose 50 mg/kg) bid×5 to end): 27.2+/−2.7
mean day of sacrifice ([2]; 2-DG single agent 1500 mg/kg p.o. (Days 1–14 dose 150 mg/kg) bid×5 to end): 28.2+/−4.6
mean day of sacrifice ([2]; 2-DG single agent 2000 mg/kg p.o. (Days 1–14 dose 400 mg/kg) bid×5 to end): 29.4+/−3.1
toxic deaths ([2]; 2-DG single agent groups): no toxic deaths
weight loss ([2]; mouse, in vivo): little weight loss
deaths ([7]; 6000 mg/kg/dose group): One mouse died
deaths ([7]; 8000 and 9000 mg/kg/dose groups): All 5 mice died
maximum tolerated dose (MTD) ([7]; mouse, in vivo): 4000 mg/kg/dose
visible signs of toxicity, multiple dose (5-day) [8]: no visible signs of toxicity
toxicity, single oral dose ([8]; po): non-toxic
visible signs of toxicity, multiple dose (5-day) [9]: no visible signs of toxicity
tolerability, single oral doses ([9]; po): well tolerated
toxicity, single oral dose ([9]; po, 1 h): emesis at 1 hour but no other visible toxicity
IC50 (HT-29 colon carcinoma; 11 mM glucose medium): 9830 µM
IC50 ([1]; 11 mM glucose medium): 2620 µM
effect on proliferation ([6]; 1 mM 2-DG by itself): no effect on proliferation by itself
tumor growth (MV522 xenograft; 2-DG alone, oral, 10 days of dosing more effective than 5): small delay in tumor growth
